According to US8399482B2, “6-substituted isoquinolines and isoquinolinones” (Sanofi, priority 2008, dated 2013):

Experiments:
Format in all cases: biochemical
[1] = target: T1, recombinant human PKA (Homo sapiens, UniProt P17612); assay: Determination of Protein Kinase A inhibition (selectivity); conditions: from IC50 values
T1 construct: recombinant human PKA (residues 1-351, N-terminal His-tag); His-tag (N); purchased Invitrogen, Karlsruhe, Germany
Procedure: (§1) 2) Determination of Protein Kinase a and Protein Kinase G Inhibition
(§2) To measure PKA and PKG1-beta inhibition, IC50 values were determined according to the following protocol:
(§3) Active recombinant human PKG1-beta (full-length, with N-terminal His-tag) was purchased from Millipore GmbH, Schwalbach, Germany. Active recombinant human PKA (residues 1-351, N-terminal His-tag) was obtained from Invitrogen, Karlsruhe, Germany. The peptide substrate, Fluorescein-[…]-COOH, was obtained from JPT Peptide Technologies, Berlin, Germany. Adenosine-5′-triphosphate (ATP), bovine serum albumine (BSA), dimethylsulphoxide (DMSO), 4-(2-Hydroxyethyl)piperazine-1-ethanesulfonic acid (Hepes), Brij-35, dithiothreitol (DTT) and Pluronic F-68 were purchased from Sigma-Aldrich, Munich, Germany. Tris(hydroxymethyl)-aminomethane (Tris), magnesium chloride, NaOH, 1M HCl and EDTA were obtained from Merck Biosciences, Darmstadt, Germany. “Complete” protease inhibitor was from Roche Diagnostics, Mannheim, Germany. Test compounds were diluted to the appropriate concentrations in buffer 1 (25 mM Tris-HCl, pH 7.4, 5 mM MgCl2, 2 mM DTT, 0.02% (w/v) BSA, 0.01% Pluronic F-68 and 3% DMSO). PKG1-beta and PKA were diluted to concentrations of 150 ng/ml and 30 ng/ml, respectively, in buffer 2. The peptide substrate and ATP were diluted to concentrations of 3 μM and 120 μM, respectively, in the buffer 2. Two μl of the compound solution were mixed with 2 μl of the diluted enzyme in a 384-well small volume microtiter plate (Greiner, Bio-One, Frickenhausen, Germany), and the kinase reaction was initiated by addition of 2 μl of the solution containing peptide substrate and ATP. After 60 min incubation at 32° C., the reaction was stopped by addition of 20 μl of a solution containing 100 mM Hepes-NaOH, pH 7.4, 0.015% (v/v) Brij-35, 45 mM EDTA and 0.227% chip coating reagent 1 (Caliper Lifescience Inc, Hopkinton, Mass.). Phosphorylation of the substrate peptide was then detected on a Caliper 3000 instrument essentially as described by Pommereau et al (J. Biomol. Screening 9(5), 409-416, 2004). Separation conditions were as follows: Pressure −1.3 psi, upstream voltage −1562 V, downstream voltage −500 V, sample sip time 200 ms, Positive controls (buffer 1 instead of compound) and negative controls (buffer 1 instead of compound and buffer 2 instead of kinase solution) were run in parallel on each plate. The following products/compounds were tested in said assay by using the respective form (salt or free base) obtained as in the examples described above and the following activities were measured.

[2] = target: T2, recombinant human PKG1-beta (Homo sapiens, UniProt Q13976); assay: Determination of Protein Kinase G inhibition (selectivity); conditions: from IC50 values
T2 construct: PKG1-beta (full-length, with N-terminal His-tag); His-tag (N); purchased Millipore GmbH, Schwalbach, Germany
T2 sequence (Q13976 1-686 isoform Q13976-2): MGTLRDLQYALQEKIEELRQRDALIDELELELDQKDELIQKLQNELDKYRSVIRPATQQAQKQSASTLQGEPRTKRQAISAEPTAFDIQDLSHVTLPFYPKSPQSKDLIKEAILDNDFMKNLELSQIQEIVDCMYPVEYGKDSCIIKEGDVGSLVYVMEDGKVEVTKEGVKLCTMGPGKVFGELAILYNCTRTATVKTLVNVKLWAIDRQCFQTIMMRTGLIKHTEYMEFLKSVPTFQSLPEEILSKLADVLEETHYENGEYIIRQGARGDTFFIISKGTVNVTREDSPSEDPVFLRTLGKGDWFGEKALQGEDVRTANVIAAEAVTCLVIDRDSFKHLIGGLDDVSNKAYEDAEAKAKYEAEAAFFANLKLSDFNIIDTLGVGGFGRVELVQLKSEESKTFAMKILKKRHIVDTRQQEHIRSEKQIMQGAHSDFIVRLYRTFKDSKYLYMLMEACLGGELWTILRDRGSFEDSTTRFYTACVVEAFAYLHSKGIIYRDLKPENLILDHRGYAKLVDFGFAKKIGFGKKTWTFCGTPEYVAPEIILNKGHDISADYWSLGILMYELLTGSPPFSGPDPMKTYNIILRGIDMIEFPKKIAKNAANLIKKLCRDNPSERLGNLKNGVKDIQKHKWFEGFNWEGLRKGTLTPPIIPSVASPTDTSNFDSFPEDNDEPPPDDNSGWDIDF
Procedure: as §1, §2, §3

[3] = target: T3, human recombinant ROCK II (Homo sapiens, UniProt O75116); assay: Determination of Rho kinase inhibition (ROCK II, Caliper peptide phosphorylation assay); conditions: respective form (salt or free base) as obtained in the examples, 60 min at 32° C.
T3 construct: recombinant human ROCK-II residues 11-552; His6 (N); purchased Millipore GmbH, Schwalbach, Germany
T3 sequence (O75116 11-552): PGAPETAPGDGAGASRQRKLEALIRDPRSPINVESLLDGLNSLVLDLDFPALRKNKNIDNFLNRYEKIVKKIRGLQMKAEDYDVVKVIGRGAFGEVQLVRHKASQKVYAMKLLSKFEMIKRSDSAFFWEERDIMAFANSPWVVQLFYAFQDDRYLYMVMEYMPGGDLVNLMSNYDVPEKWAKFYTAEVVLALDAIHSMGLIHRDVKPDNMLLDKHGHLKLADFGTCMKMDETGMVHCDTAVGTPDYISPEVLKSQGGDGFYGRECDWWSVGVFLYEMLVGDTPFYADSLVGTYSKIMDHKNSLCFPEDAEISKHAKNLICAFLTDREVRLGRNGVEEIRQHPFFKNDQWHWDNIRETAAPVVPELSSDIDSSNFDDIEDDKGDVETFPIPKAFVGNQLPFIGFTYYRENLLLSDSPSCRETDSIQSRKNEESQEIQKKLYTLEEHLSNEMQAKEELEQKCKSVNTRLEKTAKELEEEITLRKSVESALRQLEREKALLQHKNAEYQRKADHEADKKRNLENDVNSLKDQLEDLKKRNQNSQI
Procedure: To measure Rho-kinase inhibition, IC50 values were determined according to the following protocol:
Active human recombinant ROCK II (N-terminal His6-tagged recombinant human ROCK-II residues 11-552) was purchased from Millipore GmbH, Schwalbach, Germany. The peptide substrate, Fluorescein-[…]-COOH, was obtained from JPT Peptide Technologies, Berlin, Germany. Adenosine-5′-triphosphate (ATP), bovine serum albumine (BSA), dimethylsulphoxide (DMSO), 4-(2-hydroxyethyl)piperazine-1-ethanesulfonic acid (Hepes), Brij-35, dithiothreitol (DTT) and Pluronic F-68 were purchased from Sigma-Aldrich, Munich, Germany. Tris(hydroxymethyl)-aminomethane (Tris), magnesium chloride, NaOH, 1M HCl and EDTA were obtained from Merck Biosciences, Darmstadt, Germany. “Complete” protease inhibitor was from Roche Diagnostics, Mannheim, Germany. Test compounds were diluted to the appropriate concentrations in buffer 1 (25 mM Tris-HCl, pH 7.4, 5 mM MgCl2, 2 mM DTT, 0.02% (w/v) BSA, 0.01% Pluronic F-68 and 3% DMSO). The ROCK II enzyme was diluted to a concentration of 100 ng/mL in buffer 2 (25 mM Tris-HCl, pH 7.4, 5 mM MgCl2, 2 mM DTT and 0.02% (w/v) BSA). The peptide substrate and ATP were diluted to concentrations of 3 μM and 120 μM, respectively, in the buffer 2. Two μl of the compound solution were mixed with 2 μl of the diluted enzyme in a 384-well small volume microtiter plate (Greiner, Bio-One, Frickenhausen, Germany), and the kinase reaction was initiated by addition of 2 μl of the solution containing peptide substrate and ATP. After 60 min incubation at 32° C., the reaction was stopped by addition of 20 μl of a solution containing 100 mM Hepes-NaOH, pH 7.4, 0.015% (v/v) Brij-35, 45 mM EDTA and 0.227% chip coating reagent 1 (Caliper Lifescience Inc, Hopkinton, Mass.). Phosphorylation of the substrate peptide was then detected on a Caliper 3000 instrument essentially as described by Pommereau et al (J. Biomol. Screening 2004, 9(5), 409-416). Separation conditions were as follows: Pressure −1.3 psi, upstream voltage −1562 V, downstream voltage −500 V, sample sip time 200 ms. Positive controls (buffer 1 instead of compound) and negative controls (buffer 1 instead of compound and buffer 2 instead of ROCK II) were run in parallel on each plate.
The following products/compounds were tested in said assay by using the respective form (salt or free base) obtained as in the examples described above and the following activities were measured

Structure (SMILES)	Selectivity against PKA [1] [fold]	Selectivity against PKG [2] [fold]	IC50 [3] [nM]
CCC(N)[C@]1(C2CCOCC2)CC[C@H](Oc2cc3cc[nH]c(=O)c3cc2Cl)CC1 (mixture of isomers) [Example 1, cis-6-[4-(1-Aminopropyl)-4-(tetrahydropyran-4-yl)-cyclohexyloxy]-7-chloro-2H-isoquinolin-1-one]	>1000	>300	≤ 10
CCC(N)[C@]1(C2CCOCC2)CC[C@H](Oc2cc3cc[nH]c(=O)c3cc2Cl)CC1 (single isomer, unassigned) [Example 2, 6-[4-(1-Aminopropyl)-4-(tetrahydropyran-4-yl)-cyclohexyloxy]-7-chloro-2H-isoquinolin-1-one]	>10	>1	100 to 1000
CCC1(C(C)N)CCC(Oc2cc3cc[nH]c(=O)c3cc2Cl)CC1 (single isomer, unassigned) [Example 3, 6-[4-(1-Amino-ethyl)-4-ethyl-cyclohexyloxy]-7-chloro-2H-isoquinolin-1-one]	>1000	>1000	≤ 10
CCC1(C(C)N)CCC(Oc2cc3cc[nH]c(=O)c3cc2Cl)CC1 (single isomer, unassigned) [Example 4, 6-[4-(1-Amino-ethyl)-4-ethyl-cyclohexyloxy]-7-chloro-2H-isoquinolin-1-one]	>300	>100	10 to 100
CCCC1(C(N)CC)CCC(Oc2cc3cc[nH]c(=O)c3cc2Cl)CC1 (single isomer, unassigned) [Example 5, 6-[4-(1-Amino-propyl)-4-propyl-cyclohexyloxy]-7-chloro-2H-isoquinolin-1-one]	>1000	>1000	≤ 10
CCCC1(C(N)C2CC2)CCC(Oc2cc3cc[nH]c(=O)c3cc2Cl)CC1 (single isomer, unassigned) [Example 6, 6-[4-(Amino-cyclopropyl-methyl)-4-propyl-cyclohexyloxy]-7-chloro-2H-isoquinolin-1-one]	>1000	>1000	≤ 10
CCCC1(C(N)C2CC2)CCC(Oc2cc3cc[nH]c(=O)c3cc2Cl)CC1 (single isomer, unassigned) [Example 7, 6-[4-(Amino-cyclopropyl-methyl)-4-propyl-cyclohexyloxy]-7-chloro-2H-isoquinolin-1-one]	>300	>100	10 to 100
CCC(N)C1(C(C)C)CCC(Oc2cc3cc[nH]c(=O)c3cc2Cl)CC1 (single isomer, unassigned) [Example 8, 6-[4-(1-Amino-propyl)-4-isopropyl-cyclohexyloxy]-7-chloro-2H-isoquinolin-1-one]	>100	>100	≤ 10
CCC(N)C1(C(C)C)CCC(Oc2cc3cc[nH]c(=O)c3cc2Cl)CC1 (single isomer, unassigned) [Example 9, 6-[4-(1-Amino-propyl)-4-isopropyl-cyclohexyloxy]-7-chloro-2H-isoquinolin-1-one]	>10	>10	10 to 100
CC(N)C1(CC2CC2)CCC(Oc2cc3cc[nH]c(=O)c3cc2Cl)CC1 (single isomer, unassigned) [Example 10, 6-[4-(1-Amino-ethyl)-4-cyclopropylmethyl-cyclohexyloxy]-7-chloro-2H-isoquinolin-1-one]	>1000	>300	≤ 10
CC(N)C1(CC2CC2)CCC(Oc2cc3cc[nH]c(=O)c3cc2Cl)CC1 (single isomer, unassigned) [Example 11, 6-[4-(1-Amino-ethyl)-4-cyclopropylmethyl-cyclohexyloxy]-7-chloro-2H-isoquinolin-1-one]	>100	>300	10 to 100
CCC(N)C1(CC2CC2)CCC(Oc2cc3cc[nH]c(=O)c3cc2Cl)CC1 (single isomer, unassigned) [Example 12, 6-[4-(1-Amino-propyl)-4-cyclopropyl-methyl-cyclohexyl-oxy]-7-chloro-2H-isoquinolin-1-one]	>1000	>300	≤ 10
CCC(N)C1(CC2CC2)CCC(Oc2cc3cc[nH]c(=O)c3cc2Cl)CC1 (single isomer, unassigned) [Example 13, 6-[4-(1-Amino-propyl)-4-cyclopropyl-methyl-cyclohexyl-oxy]-7-chloro-2H-isoquinolin-1-one]	>10	>10	10 to 100
CCC(N)C1(Cc2ccccc2)CCC(Oc2cc3cc[nH]c(=O)c3cc2Cl)CC1 (single isomer, unassigned) [Example 31, 6-[4-(1-Amino-propyl)-4-benzyl-cyclohexyloxy]-7-chloro-2H-isoquinolin-1-one]	>10	>100	–
